Experimental data taken from ChEMBL document CHEMBL3603746, “Discovery of New H2S Releasing Phosphordithioates and 2,3-Dihydro-2-phenyl-2-sulfanylenebenzo[d][1,3,2]oxazaphospholes with Improved Antiproliferative Activity” (J Med Chem, 2015).
The source made the active and inactive calls. No cut-off for these calls is given here.

What was measured:
[1] = Induction of H2S release in 10% PBS:MeCN solution at 0.5 mM incubated at 22 degC in dark condition measured at 48 hrs by 2, 6-dansyl azide probed-based fluorescence assay relative to control; assay type: physicochemical; details: buffer, 500 µM
SK-OV-3 = test: Cytotoxicity against human SKOV3 cells assessed as inhibition of cell proliferation after 4 days by crystal violet assay; assay type: functional, cell-based; details: SK-OV-3, 96 h
MCF7 [2] = test: Cytotoxicity against human MCF7 cells assessed as inhibition of cell proliferation after 4 days by crystal violet assay; assay type: functional, cell-based; details: MCF7, 96 h
[3] = Therapeutic index, ratio of IC50 for human WI38 cells to IC50 for human MBA-MD-231 cells; details: WI38 cells and MBA-MD-231 cells
[4] = Induction of H2S release in 10% PBS:MeCN solution at 0.5 mM incubated at 37 degC in dark condition measured at 48 hrs by 1 mM 2, 6-dansyl azide probed-based fluorescence assay relative to control; assay type: physicochemical; details: buffer, 500 µM
[5] = Induction of H2S release in 10% PBS:MeCN solution assessed as ratio of H2S level at 37 degC to H2S level at 22 degC at 0.5 mM incubated in dark condition measured at 96 hrs by 2, 6-dansyl azide probed-based fluorescence assay; assay type: physicochemical; details: buffer, 500 µM
[6] = Induction of H2S release in 10% PBS:MeCN solution at 0.5 mM incubated at 37 degC in dark condition measured at 48 hrs by 2, 6-dansyl azide probed-based fluorescence assay relative to 6.9 uM of GYY4137; assay type: physicochemical; details: buffer, 500 µM
[7] = Toxicity in human AC10 cells assessed as inhibition of cell proliferation at 100 uM after 24 hrs by CellTiter-Glo cell viability assay relative to control; assay type: cell-based
[8] = Therapeutic index, ratio of IC50 for human WI38 cells to IC50 for human MCF7 cells; details: WI38 cells and MCF7 cells
[9] = Therapeutic index, ratio of IC50 for human WI38 cells to IC50 for human SKOV3 cells; details: WI38 cells and SKOV3 cells
[10] = Toxicity in human WI38 cells assessed as inhibition of cell proliferation after 4 days by crystal violet assay
[11] = Induction of H2S release in 10% PBS:MeCN solution at 0.5 mM incubated at 22 degC in dark condition measured at 48 hrs by 2, 6-dansyl azide probed-based fluorescence assay relative to 12 uM of GYY4137; assay type: physicochemical; details: buffer, 500 µM
[12] = Toxicity in transforming growth factor alpha transgenic mouse hepatocytes assessed as inhibition of cell proliferation after 24 hrs by CellTiter-Glo cell viability assay; assay type: cell-based, Hepatocyte
[13] = Therapeutic index, ratio of IC50 for human WI38 cells to IC50 for human PC3 cells; details: WI38 cells and PC3 cells
MCF7 [14] = test: Induction of H2S release in human MCF7 cells at 200 uM measured at 6 hrs by probe 21-based fluorescence assay; assay type: functional
MDA-MB-231 = test: cells; assay type: functional, cell-based; details: Homo sapiens, MDA-MB-231, 72 h
Description: Cytotoxicity against human MDA-MB-231 cells assessed as inhibition of cell proliferation after 72 hrs by MTS assay

[15] = Toxicity in human AC10 cells assessed as inhibition of cell proliferation after 24 hrs by CellTiter-Glo cell viability assay; assay type: cell-based
[16] = Induction of H2S release in 10% PBS:MeCN solution assessed as ratio of H2S level at 37 degC to H2S level at 22 degC at 5 mM incubated in dark condition measured at 96 hrs by 2, 6-dansyl azide probed-based fluorescence assay; details: buffer, 5000 µM
Salmonella typhi [17] = test: Genotoxicity in Salmonella […] TA100 at 10 to 100 ug/plate after 48 hrs by Ames test in absence of S9 fraction; assay type: toxicity, organism-based; details: salmonella enterica subsp. enterica serovar […]
[18] = Effective permeability of the compound at 500 uM after 6 hrs by PAMPA; details: PAMPA
[19] = Induction of H2S release in 10% PBS:MeCN solution at 5 mM incubated at 22 degC in dark condition measured at 96 hrs by 2, 6-dansyl azide probed-based fluorescence assay relative to GYY4137; assay type: physicochemical; details: buffer, 5000 µM
physchem [20] = details: DMSO, pH 7.4
Description: Kinetic solubility of the compound in DMSO at pH 7.4 measured at 3 hrs by multiscreen filter paper-based UV absorbance analysis

[21] = Induction of H2S release in 10% PBS:MeCN solution at 5 mM incubated at 22 degC in dark condition measured at 96 hrs by 2, 6-dansyl azide probed-based fluorescence assay relative to control; details: buffer, 5000 µM
MCF7 [22] = test: Induction of H2S release in human MCF7 cells at 400 uM after 5 hrs by probe 21-based confocal fluorescence microscopic analysis; assay type: functional, cell-based
MCF7 [23] = test: Induction of H2S release in human MCF7 cells at 200 uM measured at 24 hrs by probe 21-based fluorescence assay; assay type: functional
physchem [24] = details: DMSO, pH 7.4; remark: listed apart in the source
Description: Kinetic solubility of the compound in DMSO at pH 7.4 measured at 24 hrs by multiscreen filter paper-based UV absorbance analysis

[25] = Effective permeability of the compound at 500 uM after 16 hrs by PAMPA
Salmonella typhi [26] = test: Genotoxicity in Salmonella […] TA98 at 10 to 100 ug/plate after 48 hrs by Ames test in absence of S9 fraction; assay type: toxicity, organism-based; details: salmonella enterica subsp. enterica serovar […]
MCF7 [27] = test: Induction of H2S release in human MCF7 cells at 400 uM measured at 24 hrs by probe 21-based fluorescence assay; assay type: functional
MCF7 [28] = test: cells; assay type: functional, cell-based; details: Homo sapiens, MCF7, 72 h
Description: Cytotoxicity against human MCF7 cells assessed as inhibition of cell proliferation after 72 hrs by MTT assay

[29] = Induction of H2S release in aqueous acetonitrile solution at 200 uM measured over 4 days by probe 21-based fluorescence assay; details: buffer, 96 h
PC-3 = test: cells; assay type: functional, cell-based; details: Homo sapiens, PC-3, 72 h
Description: Cytotoxicity against human PC3 cells assessed as inhibition of cell proliferation after 72 hrs by MTT assay

[30] = Induction of H2S release in 10% PBS:MeCN solution at 5 mM incubated at 37 degC in dark condition measured at 96 hrs by 2, 6-dansyl azide probed-based fluorescence assay relative to GYY4137; assay type: physicochemical; details: buffer, 5000 µM
Salmonella typhi [31] = test: Genotoxicity in Salmonella […] TA100 at 10 to 100 ug/plate after 48 hrs by Ames test in presence of S9 fraction; assay type: toxicity, organism-based; details: salmonella enterica subsp. enterica serovar […], s9, 48 h
MCF7 [32] = test: Induction of H2S release in human MCF7 cells at 400 uM measured at 6 hrs by probe 21-based fluorescence assay; assay type: functional
Salmonella typhi [33] = test: Genotoxicity in Salmonella […] TA98 at 10 to 100 ug/plate after 48 hrs by Ames test in presence of S9 fraction; assay type: toxicity, organism-based; details: salmonella enterica subsp. enterica serovar […], s9, 48 h
[34] = Induction of H2S release in aqueous acetonitrile solution at 400 uM measured over 4 days by probe 21-based fluorescence assay; details: buffer, 96 h
MCF7 [35] = test: Reduction of intracellular pH in human MCF7 cells at 50 uM after 48 hrs by BCECF-AM staining-based confocal microscopic analysis; assay type: functional
[36] = Induction of H2S release in 10% PBS:MeCN solution at 5 mM incubated at 37 degC in dark condition measured at 96 hrs by 1 mM 2, 6-dansyl azide probed-based fluorescence assay relative to control; details: buffer, 5000 µM
[37] = Induction of H2S release in 10% PBS:MeCN solution at 5 mM incubated at 37 degC in dark condition measured at 96 hrs by 0.2 mM 2, 6-dansyl azide probed-based fluorescence assay relative to control; assay type: physicochemical; details: buffer, 5000 µM
MCF7 [38] = test: Antitumor activity against human MCF7 tumor spheroids assessed as tumor growth inhibition at 200 uM after 14 days by inverted microscopic analysis relative to control; assay type: functional; details: MCF7, 336 h, read-out: TGI
MCF7 [39] = test: Antitumor activity against human MCF7 tumor spheroids assessed as tumor growth inhibition at 800 uM after 14 days by inverted microscopic analysis relative to control; assay type: functional; details: MCF7, 336 h, read-out: TGI
MCF7 [40] = test: Antitumor activity against human MCF7 tumor spheroids assessed as tumor growth inhibition at 400 uM after 14 days by inverted microscopic analysis relative to control; assay type: functional; details: MCF7, 336 h, read-out: TGI
MCF7 [41] = test: Antitumor activity against human MCF7 tumor spheroids assessed as tumor growth inhibition at 100 uM after 14 days by inverted microscopic analysis relative to control; assay type: functional; details: MCF7, 336 h, read-out: TGI
[42] = Induction of H2S release in 10% PBS:MeCN solution at 100 uM incubated at 37 degC in dark condition measured at 72 hrs by 2, 6-dansyl azide probed-based fluorescence assay; assay type: physicochemical; details: buffer
[43] = Induction of H2S release in 10% PBS:MeCN solution at 1 mM incubated at 22 degC in dark condition measured at 72 hrs by 2, 6-dansyl azide probed-based fluorescence assay; assay type: physicochemical; details: buffer, 1000 µM

| SMILES | IC50 (SK-OV-3) [µM] | IC50 (MCF7 [2]) [µM] | selectivity ratio [3] | inhibition at 24 h, 100 µM [7] [%] | selectivity ratio [8] | selectivity ratio [9] | IC50 at 4 days [10] [µM] | IC50 at 24 h [12] [µM] | selectivity ratio [13] | IC50 (MDA-MB-231) [µM] | IC50 at 24 h [15] [µM] | Ratio [16] | Papp at 6 h, 500 µM [18] [×10⁻⁶ cm/s] | fold change (FC) [19] | solubility kinetic at 3 h (physchem [20]) [µg/mL] | %max [21] [%] | solubility kinetic at 24 h (physchem [24]) [µg/mL] | Papp at 16 h, 500 µM [25] [×10⁻⁶ cm/s] | IC50 (MCF7 [28]) [µM] | IC50 (PC-3) [µM] | further results |
| --- | --- | --- | --- | --- | --- | --- | --- | --- | --- | --- | --- | --- | --- | --- | --- | --- | --- | --- | --- | --- | --- |
| C1CSCCN1.S=P(S)(N1CCSCC1)N1CCSCC1 | 15.8 | 20.4 | 1.5 | 35.6 | 1.5 | 1.5 | 30.4 | 120 | 1.5 |  |  |  |  |  |  |  |  |  |  |  | %max [1]: 48.5%; %max [4]: 62.6%; Ratio [5]: 1.3; fold change (FC) [6]: 90.7; fold change (FC) [11]: 40 |
| NCc1ccccc1.S=P(S)(NCc1ccccc1)c1ccc(Oc2ccccc2)cc1 (centres undefined) | 47 | 36.3 | 1.5 |  | 1.5 | 1.5 | 104 | 23.5 | 1.5 | 55.4 | 62.6 | 2.2 | 0.19 | 0.9 | 200 | 1.28 | 180 | 0.97 | 67.6 | 45.6 | Activity (MCF7 [14]): 41.5 µM; Activity (Salmonella typhi [17]): Non-toxic; Activity (MCF7 [22]): Active; Activity (MCF7 [23]): 93.4 µM; Activity (Salmonella typhi [26]): Non-toxic; Activity (MCF7 [27]): 74.6 µM; Activity [29]: 9.03 µM; fold change (FC) [30]: 0.5; Activity (Salmonella typhi [31]): Non-toxic; Activity (MCF7 [32]): 48.2 µM; Activity (Salmonella typhi [33]): Non-toxic; Activity [34]: 17.19 µM; pH (MCF7 [35]): 6.75; %max [36]: 2.81% |
| C1COCCN1.CC(C)OP(=S)(S)c1ccc(Oc2ccccc2)cc1 (centres undefined) | 50.2 | 51.4 | 1.4 | 28.6 | 1.4 | 1.4 | 72.8 |  | 1.4 | 94.8 |  | 2.6 | 0.0066 | < 0.1 | > 400 | 0.06 | > 400 | 0.0051 | 178 | 50.8 | %max [37]: 0.15%; fold change (FC) [30]: < 0.1 |
| S=P1(c2ccccc2)Nc2ccccc2O1 (centres undefined) | 6.12 | 5.7 |  |  |  | 8.2 | > 50 | 26.3 |  |  | 98 |  |  |  |  |  |  |  |  |  | inhibition of growth at 200 µM (MCF7 [38]): 75.3%; inhibition of growth at 800 µM (MCF7 [39]): 91%; inhibition of growth at 400 µM (MCF7 [40]): 83.7%; inhibition of growth at 100 µM (MCF7 [41]): 69.7%; Activity [42]: 77.6 µM; Activity [43]: 150 µM |
